Measured values from patent US5641480A, “Hair care compositions comprising heteroatom containing alkyl aldonamide compounds” (Lever Brothers Company, Division of Conopco, Inc., priority 1994, dated 1997).

How the values were obtained:
Format in all cases: physicochemical
[1] = Ross-Miles foam height assay of aldonamides (Examples 81-84); settings: 0.1% aldonamide, 40° C. (if not soluble, about 5°-10° C. above Krafft point), 0 ppm hardness; for Foam Height Final: after 10 minutes
Procedure: In the Ross-Miles method, 200 mL of a suffactant solution contained in a pipette of specified dimensions with a 2.9 -mm-i.d. orifice is allowed to fall 90 cm onto 50 mL of the same solution contained in a cylindrical vessel maintained at a given temperature by means of a water jacket. The height of the foam produced in the cylindrical vessel is read immediately after all the solution has run out of the pipette and then again after a given amount of time.
Using this method, the foam production (initial foam height in mm) and foam stability (final foam height after 10 minutes in mm) were measured at 0.1% aldonamtde concentration, 40° C. and 0 ppm (parts per million) hardness.

[2] = Clarity of prototype shampoo compositions with sodium lauryl sulfate (Example 87); settings: room temperature, 6 months
Procedure: (§1) The prototype shampoo composition is as follows:
(§2) The above formulations were prepared by admixing the above ingredients in listed order and heating the mixture to about 80° C. with rapid stirring. The mixture was then cooled to about 40° C., placed in a clear jar and stored at room temperature for 6 months.

[3] = Krafft point determination; settings: 0.1% in water
Procedure: The temperature at and above which surfactants begin to form micelles instead of precipitates is referred to as the Krafft point (Tk) and at this temperature the solubility of a surfactant becomes equal to its CMC (numerical value at which micelles are formed).
The Krafft point was measured by preparing 650 ml of a 0.1% or 1.0% dispersion of aldonamide in water by weight. If the surfactant was soluble at room temperature, the solution was slowly cooled to 0° C. […] (less than zero). If it precipitated out of solution, the temperature at which precipitation occurs was taken as the Krafft point.
If the surfactant was insoluble at room temperature, the dispersion was slowly heated until the solution became homogeneous. It was then slowly cooled until precipitation occurred. The temperature at which the surfactant precipitates out of solution upon cooling was taken as the Krafft point.

[4] = Viscosity of prototype shampoo compositions with sodium lauryl sulfate, Brookfield Digital Viscometer (Example 88); settings: vs no thickener
Procedure: as §1, §2
It is well known that the viscosity of a liquid composition comprising of anionic surfactant can be modified by the addition of inorganic salts, such as sodium chloride. However, in the absence of an organic modifier, high levels of salt may be necessary to achieve the required viscosity which may lead to problems of storage at cold temperature or even salting out certain ingredients. In practice, however, the viscosity of a liquid composition is modified by the simultaneous addition of thickener and small amounts of inorganic salt (viscosity cobuilder). The combined effect is greater than either one alone. The viscosity of the above prototype shampoo composition comprising various amounts of heteroatom containing alkyl aldonamide compound is as follows: […]

[5] = 5.0% thickener in […] sodium lauryl sulfate shampoo
[6] = 3.0% thickener in […] sodium lauryl sulfate shampoo

Foam Height Initial [1] [mm] | Foam Height Final [1] [mm] | Appearance (Time) ([2]; 4.0% thickener in […] sodium lauryl sulfate shampoo) | Appearance (Time) [2, 5] | Krafft Point (0.1%) [3] [°C] | Appearance (Time) [2, 6] | Increase (viscosity) ([4]; 3.0% thickener) [×] | Increase (viscosity) ([4]; 5.0% thickener) [×] | Compound
0 | 0 | Precipitate (2 weeks) | Precipitate (2 weeks) |  |  |  |  | CCCCCCCCCNC(=O)[C@H](O)[C@@H](O)[C@H](O)[C@H](O)CO [C9 D-Gluconamide]
0 | 0 |  |  | 42 |  |  |  | CCCCCCCCCNC(=O)[C@H](O)[C@@H](O)[C@H](O[C@@H]1O[C@H](CO)[C@H](O)[C@H](O)[C@H]1O)[C@H](O)CO [C9 D-Lactobionamide, Nonyl D-Lactobionamide]
199 | 6 |  | Precipitate (5 days) |  | Precipitate (1 week) |  |  | CCCCCCCCCCNC(=O)[C@H](O)[C@@H](O)[C@H](O)[C@H](O)CO [C10 D-Gluconamide]
0 | 0 |  |  | 61 |  |  |  | CCCCCCCCCCCNC(=O)[C@H](O)[C@@H](O)[C@H](O[C@@H]1O[C@H](CO)[C@H](O)[C@H](O)[C@H]1O)[C@H](O)CO [C11 D-Lactobionamide]
 |  |  |  | 86 |  |  |  | CCCCCCCCCCCCNC(=O)C(O)C(O)C(O)C(O)C(O)C(O)CO [C12 D-Glucooctonamide]
153 | 20 |  |  | 38 |  |  |  | CCCCCCCCCCCCNC(=O)[C@H](O)[C@@H](O)[C@H](O[C@@H]1O[C@H](CO)[C@H](O)[C@H](O)[C@H]1O)[C@H](O)CO [C12 D-Lactobionamide]
200 | 110 |  | Precipitate (5 months) |  | Clear | 120 | 1373 | CCCCCCCCCCCCOCCCNC(=O)[C@H](O)[C@@H](O)[C@H](O)[C@H](O)CO [C12 Oxypropyl D-Gluconamide]
165 | 154 |  |  | < 0 |  | 23 | 97 | CCCCCCCCCCCCOCCCNC(=O)[C@H](O)[C@@H](O)[C@H](O[C@@H]1O[C@H](CO)[C@H](O)[C@H](O)[C@H]1O)[C@H](O)CO [C12 Oxypropyl D-Lactobionamide, Dodecyloxypropyl D-Lactobionamide]
163 | 155 |  |  | < 0 |  |  |  | CCCCCCCCCCCCOCCCNC(=O)[C@H](O)[C@@H](O)[C@H](O[C@H]1O[C@H](CO)[C@@H](O)[C@H](O)[C@H]1O)[C@H](O)CO [C12 Oxypropyl D-Maltobionamide, Dodecyloxypropyl D-Maltobionamide]
 |  |  |  | 70 |  |  |  | CCCCCCCCCCCCCNC(=O)[C@H](O)[C@@H](O)[C@H](O[C@@H]1O[C@H](CO)[C@H](O)[C@H](O)[C@H]1O)[C@H](O)CO [C13 D-Lactobionamide]
141 | 59 |  |  | 18 |  |  |  | CCCCCCCCCCCCCCNC(=O)[C@H](O)[C@@H](O)[C@H](O[C@@H]1O[C@H](CO)[C@H](O)[C@H](O)[C@H]1O)[C@H](O)CO [C14 D-Lactobionamide]
 |  |  |  | 46 |  |  |  | CCCCCCCCCCCCCCNC(=O)[C@H](O)[C@@H](O)[C@H](O[C@H]1O[C@H](CO)[C@@H](O)[C@H](O)[C@H]1O)[C@H](O)CO [C14 D-Maltobionamide]
163 | 154 |  |  | < 0 |  |  |  | CCCCCCCCCCCCCCOCCCNC(=O)[C@H](O)[C@@H](O)[C@H](O[C@@H]1O[C@H](CO)[C@H](O)[C@H](O)[C@H]1O)[C@H](O)CO [C14 Oxypropyl D-Lactobionamide, Tetradecyloxypropyl D-Lactobionamide]
 |  |  |  | 84 |  |  |  | CCCCCCCCCCCCCCCNC(=O)[C@H](O)[C@@H](O)[C@H](O[C@@H]1O[C@H](CO)[C@H](O)[C@H](O)[C@H]1O)[C@H](O)CO [C15 D-Lactobionamide]
95 | 95 |  |  | 64 |  |  |  | CCCCCCCCCCCCCCCCNC(=O)[C@H](O)[C@@H](O)[C@H](O[C@@H]1O[C@H](CO)[C@H](O)[C@H](O)[C@H]1O)[C@H](O)CO [C16 D-Lactobionamide]
 |  |  |  | 82 |  |  |  | CCCCCCCCCCCCCCCCCCNC(=O)[C@H](O)[C@@H](O)[C@H](O[C@@H]1O[C@H](CO)[C@H](O)[C@H](O)[C@H]1O)[C@H](O)CO [C18 D-Lactobionamide]
161 | 153 |  |  | < 0 |  |  |  | CCCCCCCCCCCCOC(=O)CNC(=O)[C@H](O)[C@@H](O)[C@H](O[C@@H]1O[C@H](CO)[C@H](O)[C@H](O)[C@H]1O)[C@H](O)CO [D-Lactobionyl C12 Glycinate, N-D-Lactobionyl Dodecyl Glycinate]
159 | 152 |  |  | < 0 |  |  |  | CCCCCCCCCCCCOC(=O)CCNC(=O)[C@H](O)[C@@H](O)[C@H](O[C@@H]1O[C@H](CO)[C@H](O)[C@H](O)[C@H]1O)[C@H](O)CO [D-Lactobionyl C12 β-Alaninate, N-D-Lactobionyl Dodecyl β-Alaninate]
169 | 165 |  |  | < 0 |  |  |  | CCCCCCCC/C=C\CCCCCCCCNCCCNC(=O)[C@H](O)[C@@H](O)[C@H](O[C@@H]1O[C@H](CO)[C@H](O)[C@H](O)[C@H]1O)[C@H](O)CO [Oleylaminopropyl D-Lactobionamide]
 |  |  | Precipitate (2 hours) |  | Precipitate (1 day) |  |  | Coco D-Gluconamide
186 | 182 |  | Clear |  | Clear |  |  | Cocoaminopropyl D-Gluconamide
171 | 168 |  |  | < 0 |  |  |  | Cocoaminopropyl D-Lactobionamide
166 | 155 |  |  | < 0 |  |  |  | Dodecyl to Pentadecyloxypropyl D-Lactobionamide [C12 -C15 Oxypropyl D-Lactobionamide]
168 | 158 |  | Clear | < 0 | Clear |  |  | Octyl/Decyloxypropyl D-Lactobionamide [C8 /C10 Oxypropyl D-Lactobionamide]
180 | 176 |  |  |  |  |  |  | dodecyl to pentadecyloxypropylaminopropyl D-gluconamide

Compound | Foam Height Initial [1] [mm] | Foam Height Final [1] [mm] | Appearance (Time) ([2]; 4.0% thickener in […] sodium lauryl sulfate shampoo) | Appearance (Time) [2, 5] | Krafft Point (0.1%) [3] [°C] | Appearance (Time) [2, 6] | Increase (viscosity) ([4]; 3.0% thickener) [×] | Increase (viscosity) ([4]; 5.0% thickener) [×]
Dodecyl to Pentadecyloxypropylaminopropyl D-Lactobionamide | 173 | 169 |  |  | < 0 |  |  | 
